Earlier results on 2 compounds are cited in patent US20170239214A1, “COMPOSITION FOR PREVENTING OR TREATING OBESITY CONTAINING ALPHA-LIPOIC ACID AND N-ACETYLCYSTEINE AS ACTIVE INGREDIENTS” (The Asan Foundation, priority 2015, published 2017).

For series [1] the following is noted: rats.
For series [2] the following is noted: mice.

As to `CC(=O)N[C@@H](CS)C(=O)O` [N-acetylcysteine], in series [1], the improving insulin resistance result is “improving insulin resistance” and the “inhibiting a weight gain” value is given as “significant effects of inhibiting a weight gain”.

On to `O=C(O)CCCCC1CCSS1` (stereo not drawn) [α-lipoic acid], for which the appetite suppressant effect result in series [2] is reported as “pronounced appetite suppressant effect”.
